Patent US10681909B2, “Herbicidal triazoles” (FMC Corporation, priority 2014, dated 2020)

Legend:
barnyardgrass [1] = assay: Test A postemergence; assay type: in vivo, Echinochloa crus-galli; conditions: 0 to 100 scale (0 no effect, 100 complete control), approx. 10 d
How it was run: (§1)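 Test chemicals, formulated in a surfactant-containing non-phytotoxic solvent mixture, are applied either as a directed soil spray to newly planted seeds or as a postemergence application to plants at the one- to two-leaf stage (2–10 cm). All plants grow in a loam soil and sand blend.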

pigweed [2] = assay: Test A postemergence; assay type: in vivo, Amaranthus retroflexus; conditions: 0 to 100 scale (0 no effect, 100 complete control), approx. 10 d
How it was run: as §1

foxtail, giant [3] = assay: Test A postemergence; assay type: in vivo, Setaria faberii; conditions: 0 to 100 scale (0 no effect, 100 complete control), approx. 10 d
How it was run: as §1

crabgrass, large [4] = assay: Test A postemergence; assay type: in vivo, Digitaria sanguinalis; conditions: 0 to 100 scale (0 no effect, 100 complete control), approx. 10 d
From the text: (§2) Seeds of plant species selected from barnyardgrass (Echinochloa crus-galli), crabgrass, large (large crabgrass, Digitaria sanguinalis), kochia (Kochia scoparia), ragweed (common ragweed, Ambrosia elatior), foxtail, giant (giant foxtail, Setaria faberii), morningglory (Ipomoea spp.), pigweed (Amaranthus retroflexus), velvetleaf (Abutilon theophrasti), ryegrass, Italian (Italian ryegrass, Lolium multiflorum), wheat (Triticum aestivum), and corn (Zea mays) were planted into a blend of loam soil and sand and treated preemergence with a directed soil spray using test chemicals formulated in a non-phytotoxic solvent mixture which included a surfactant. At the same time, plants selected from these crop and weed species and also blackgrass (Alopecurus myosuroides), and galium (catchweed bedstraw, Galium aparine), were planted in pots containing the same blend of loam soil and sand and treated with postemergence applications of test chemicals formulated in the same manner. Plants ranged in height from 2 to 10 cm and were in the one- to two-leaf stage for the postemergence treatment. […] A dash (-) response means no test result.

barnyardgrass [5] = assay: Test A preemergence; assay type: in vivo, Echinochloa crus-galli; conditions: 0 to 100 scale (0 no effect, 100 complete control)
How it was run: as §1

morningglory [6] = assay: Test A postemergence; assay type: in vivo, Ipomoea spp.; conditions: 0 to 100 scale (0 no effect, 100 complete control), approx. 10 d
From the text: as §2

velvetleaf [7] = assay: Test A postemergence; assay type: in vivo, Abutilon theophrasti; conditions: 0 to 100 scale (0 no effect, 100 complete control), approx. 10 d
From the text: as §2

rice = assay: Test B flooded paddy test; assay type: in vivo, Oryza sativa; conditions: applied to paddy water at 2-leaf stage, visual rating after 13 to 15 d, scale 0 (no effect) to 100 (complete control)
From the text: (§3) At time of treatment, test pots were flooded to 3 cm above the soil surface, treated by application of test compounds directly to the paddy water, and then maintained at that water depth for the duration of the test. Treated plants and controls were maintained in a greenhouse for 13 to 15 d, after which time all species were compared to controls and visually evaluated. […] A dash (-) response means no test result.

wheat [8] = assay: Test A postemergence; assay type: in vivo, Triticum aestivum; conditions: 0 to 100 scale (0 no effect, 100 complete control), approx. 10 d
How it was run: as §1

sedge, umbrella = assay: Test B flooded paddy test; assay type: in vivo, Cyperus difformis; conditions: applied to paddy water at 2-leaf stage, visual rating after 13 to 15 d, scale 0 (no effect) to 100 (complete control)
From the text: as §3

crabgrass, large [9] = assay: Test A preemergence; assay type: in vivo, Digitaria sanguinalis; conditions: 0 to 100 scale (0 no effect, 100 complete control)
From the text: as §2

velvetleaf [10] = assay: Test A preemergence; assay type: in vivo, Abutilon theophrasti; conditions: 0 to 100 scale (0 no effect, 100 complete control)
From the text: as §2

pigweed [11] = assay: Test A preemergence; assay type: in vivo, Amaranthus retroflexus; conditions: 0 to 100 scale (0 no effect, 100 complete control)
How it was run: as §1

corn [12] = assay: Test A postemergence; assay type: in vivo, Zea mays; conditions: 0 to 100 scale (0 no effect, 100 complete control), approx. 10 d
How it was run: as §1

foxtail, giant [13] = assay: Test A preemergence; assay type: in vivo, Setaria faberii; conditions: 0 to 100 scale (0 no effect, 100 complete control)
How it was run: as §1

wheat [14] = assay: Test A preemergence; assay type: in vivo, Triticum aestivum; conditions: 0 to 100 scale (0 no effect, 100 complete control)
From the text: as §2

barnyardgrass [15] = assay: Test B flooded paddy test; assay type: in vivo, Echinochloa crus-galli; conditions: applied to paddy water at 2-leaf stage, visual rating after 13 to 15 d, scale 0 (no effect) to 100 (complete control)
From the text: as §3

corn [16] = assay: Test A preemergence; assay type: in vivo, Zea mays; conditions: 0 to 100 scale (0 no effect, 100 complete control)
From the text: as §2

morningglory [17] = assay: Test A preemergence; assay type: in vivo, Ipomoea spp.; conditions: 0 to 100 scale (0 no effect, 100 complete control)
From the text: as §2

ducksalad = assay: Test B flooded paddy test; assay type: in vivo, Heteranthera limosa; conditions: applied to paddy water at 2-leaf stage, visual rating after 13 to 15 d, scale 0 (no effect) to 100 (complete control)
From the text: as §3

Structure (SMILES)	Plant response rating, Barnyardgrass (barnyardgrass [1]; 125 g ai/ha)	Plant response rating, Barnyardgrass (barnyardgrass [1]; 500 g ai/ha)	Plant response rating, Pigweed (pigweed [2]; 125 g ai/ha)	Plant response rating, Pigweed (pigweed [2]; 500 g ai/ha)	Plant response rating, Foxtail, Giant (foxtail, giant [3]; 125 g ai/ha)	Plant response rating, Foxtail, Giant (foxtail, giant [3]; 500 g ai/ha)	Plant response rating, Crabgrass, Large (crabgrass, large [4]; 125 g ai/ha)	Plant response rating, Crabgrass, Large (crabgrass, large [4]; 500 g ai/ha)	Plant response rating, Barnyardgrass (barnyardgrass [5]; 125 g ai/ha)	Plant response rating, Barnyardgrass (barnyardgrass [5]; 500 g ai/ha, approx. 10 d)	Plant response rating, Morningglory (morningglory [6]; 125 g ai/ha)	Plant response rating, Morningglory (morningglory [6]; 500 g ai/ha)	Plant response rating, Velvetleaf (velvetleaf [7]; 125 g ai/ha)	Plant response rating, Velvetleaf (velvetleaf [7]; 500 g ai/ha)	Plant response rating, Wheat (wheat [8]; 125 g ai/ha)	Plant response rating, Wheat (wheat [8]; 500 g ai/ha)	Plant response rating, Crabgrass, Large (crabgrass, large [9]; 125 g ai/ha)	Plant response rating, Crabgrass, Large (crabgrass, large [9]; 500 g ai/ha, approx. 10 d)	Plant response rating, Velvetleaf (velvetleaf [10]; 125 g ai/ha)	Plant response rating, Velvetleaf (velvetleaf [10]; 500 g ai/ha, approx. 10 d)	also measured
CSc1nc(-c2ccc(F)cc2)nn1Cc1ccnc(C(F)(F)F)c1 [Compound 21]	0	10	30	80	10	20	20	20	0	0	20	30	10	20	0	10	10	80	0	0	Plant response rating, Rice, Flood (rice; 250 g ai/ha): 25; Plant response rating, Sedge, Umbrella, Flood (sedge, umbrella; 250 g ai/ha): 90; Plant response rating, Pigweed (pigweed [11]; 125 g ai/ha): 10; Plant response rating, Pigweed (pigweed [11]; 500 g ai/ha, approx. 10 d): 90; Plant response rating, Corn (corn [12]; 125 g ai/ha): 10; Plant response rating, Corn (corn [12]; 500 g ai/ha): 20; Plant response rating, Foxtail, Giant (foxtail, giant [13]; 125 g ai/ha): 0; Plant response rating, Foxtail, Giant (foxtail, giant [13]; 500 g ai/ha, approx. 10 d): 60; Plant response rating, Wheat (wheat [14]; 125 g ai/ha): 0; Plant response rating, Wheat (wheat [14]; 500 g ai/ha, approx. 10 d): 0; Plant response rating, Barnyardgrass, Flood (barnyardgrass [15]; 250 g ai/ha): 80; Plant response rating, Corn (corn [16]; 125 g ai/ha): 0; Plant response rating, Corn (corn [16]; 500 g ai/ha, approx. 10 d): 0; Plant response rating, Morningglory (morningglory [17]; 125 g ai/ha): 0; Plant response rating, Morningglory (morningglory [17]; 500 g ai/ha, approx. 10 d): 0; Plant response rating, Ducksalad, Flood (ducksalad; 250 g ai/ha): 95
CCCn1nc(-c2ccc(F)cc2)nc1C(O)c1ccnc(C(F)(F)F)c1 (stereo not drawn) [Compound 16]	0	70	100	100	30	70	20	70	0	80	40	40	0	40	10	30	60	100	0	20	Plant response rating, Rice, Flood (rice; 125 g ai/ha): 0; Plant response rating, Sedge, Umbrella, Flood (sedge, umbrella; 125 g ai/ha): 0; Plant response rating, Pigweed (pigweed [11]; 125 g ai/ha): 80; Plant response rating, Pigweed (pigweed [11]; 500 g ai/ha, approx. 10 d): 100; Plant response rating, Corn (corn [12]; 125 g ai/ha): 10; Plant response rating, Corn (corn [12]; 500 g ai/ha): 50; Plant response rating, Foxtail, Giant (foxtail, giant [13]; 125 g ai/ha): 50; Plant response rating, Foxtail, Giant (foxtail, giant [13]; 500 g ai/ha, approx. 10 d): 90; Plant response rating, Wheat (wheat [14]; 125 g ai/ha): 0; Plant response rating, Wheat (wheat [14]; 500 g ai/ha, approx. 10 d): 0; Plant response rating, Barnyardgrass, Flood (barnyardgrass [15]; 125 g ai/ha): 0; Plant response rating, Corn (corn [16]; 125 g ai/ha): 0; Plant response rating, Corn (corn [16]; 500 g ai/ha, approx. 10 d): 0; Plant response rating, Morningglory (morningglory [17]; 125 g ai/ha): 0; Plant response rating, Morningglory (morningglory [17]; 500 g ai/ha, approx. 10 d): 20; Plant response rating, Ducksalad, Flood (ducksalad; 125 g ai/ha): 0
CCCn1nc(-c2ccc(F)cc2)nc1C(=O)c1ccnc(C(F)(F)F)c1 [Compound 20]	0	20	40	90	10	10	20	10	0	80	10	10	0	40	20	30	20	100	0	0	Plant response rating, Rice, Flood (rice; 125 g ai/ha): 0; Plant response rating, Sedge, Umbrella, Flood (sedge, umbrella; 125 g ai/ha): 0; Plant response rating, Pigweed (pigweed [11]; 125 g ai/ha): 20; Plant response rating, Pigweed (pigweed [11]; 500 g ai/ha, approx. 10 d): 90; Plant response rating, Corn (corn [12]; 125 g ai/ha): 20; Plant response rating, Corn (corn [12]; 500 g ai/ha): 20; Plant response rating, Foxtail, Giant (foxtail, giant [13]; 125 g ai/ha): 80; Plant response rating, Foxtail, Giant (foxtail, giant [13]; 500 g ai/ha, approx. 10 d): 90; Plant response rating, Wheat (wheat [14]; 125 g ai/ha): 0; Plant response rating, Wheat (wheat [14]; 500 g ai/ha, approx. 10 d): 20; Plant response rating, Barnyardgrass, Flood (barnyardgrass [15]; 125 g ai/ha): 0; Plant response rating, Corn (corn [16]; 125 g ai/ha): 0; Plant response rating, Corn (corn [16]; 500 g ai/ha, approx. 10 d): 0; Plant response rating, Morningglory (morningglory [17]; 125 g ai/ha): 0; Plant response rating, Morningglory (morningglory [17]; 500 g ai/ha, approx. 10 d): 20; Plant response rating, Ducksalad, Flood (ducksalad; 125 g ai/ha): 0
